Results published in patent publication US8945595B2, “Insect repellent and attractants” (The Regents of the University of California, priority 2009, dated 2015).

Assays:
[1] = test system: CO2-sensitive ab1C neurons; assay: single-sensillum electrophysiology, baseline (spontaneous) activity of ab1C neurons; type: cell-based, Drosophila
Protocol: A number of individual odourants were tested for their ability to inhibit the baseline activity of the neuron using single-sensillum electrophysiology. […] Extracellular single-unit recordings were performed. Odourant stimuli were delivered via Pasteur pipette odour cartridges (see, FIG. 16). Chemicals were of the highest purity available, typically>99% (Sigma-Aldrich). All odourants were diluted in paraffin oil. A controlled volume of air 5 ml/sec was puffed through the odour cartridge containing vapours, and was delivered into a constant humidified airstream of 10 ml/sec that was passed over the fly antenna. […] CO2 stimulus was pulsed through a separate delivery system that delivered controlled pulses (variable 2.5 ml/sec-6.5 ml/sec) into the same humidified airstream, from either a 1%, 5% or 100% tank of CO2 (Airgas). […] Unless mentioned, responses were quantified by subtraction of spontaneous activity from activity during the stimulus. […] Both these compounds are present at electrophysiologically relevant concentrations in Drosophila food sources: 1-hexanol has been detected in various types of fruit including mango, melon, strawberry, passion fruit, muskmelon and banana; 2,3-butanedione is a natural by-product of fermentation by yeast and is thus also present in beer.

[2] = test system: Or83b2 mutant flies; assay: T-maze choice assay, avoidance behavior to CO2, Or83b2 mutant flies; type: in vivo, Drosophila; conditions: odourant with CO2
Protocol: (a) A t-maze is used to show preference to a test odor or to a solvent. Flies are starved 24 hrs prior to assay. All assays performed for 1-min in the dark. A negative preference index indicates avoidance. (a) Flies in a T-maze were offered a choice between a 15 ml tube infused with 0.1ml of CO2 prior to start of assay, and another that was infused with air. (b) wildtype and Or83b−/− flies were presented with CO2, a mixture of CO2 and 2,3-butanedione (d4on), or d4on alone. (c) Flies were exposed to 10 ul d4on 10^−2 for 1 min, allowed to recover for 2 min in clean air and then assayed for avoidance to CO2. A control exposure to 1 min of 2-methylphenol (2 mpol) at 10^−2 and then a recovery period of 2 min is also assayed for avoidance behavior to CO2. (d) Flies are exposed to d4on for 1 min, allowed to recover for 2 min, and then assayed for behavior to ethyl acetate (2AC). Behavior to 2AC without pre-exposure is also measured. […]
T-maze behavioral testing using Drosophila stress odour, CO2, and mixtures were using techniques known in the art, with some modifications. […] The avoidance response was calculated as a Preference Index (PI)=(number of flies in test arm−number of flies in control arm)/(total number of flies in assay). […] The avoidance response was calculated as a Preference Index (PI)=(number of flies in test arm−number of flies in control arm)/(total number of flies in assay). […]

[3] = test system: CO2 sensitive A neuron of peg sensillum; assay: activation of CO2 sensitive neuron with a volatile odorant; type: cell-based, Aedes aegypti; conditions: 1 sec puff, indicated dilution
Protocol: (§1) FIG. 2 depicts electrophysiology measurements of the peg sensillum on the mosquito maxillary palp. The palp, indicated in brown in the schematic of the mosquito head, has several peg sensilla. Each peg sensilla (grey club-like structure in the center) contains three olfactory neurons A, B and C as indicated, of which the ‘A’ neuron gives a robust and specific increase in frequency of action potentials in response to a stimulus of CO2. Extracellular single-unit recordings are performed by inserting a glass microelectrode into the peg sensilla, and puffing an odor such as CO2 towards the mosquito maxillary palps. The signal is amplified to obtain the trace of action potentials.
(§2) (a) Action potential traces from the peg sensillum of the maxillary palp show spike amplitudes from three neurons, where the spikes with the largest amplitude belongs to the CO2 sensitive A neuron. (b) 1 sec of the indicated dilution 2,3-butanedione is puffed to Aedes aegypti. (c) 1 sec of indicated odor is puffed to Anopheles gambiae. (d) butanone and (e) 2,3-butanedione are given to Culex quinquefasciatus at the indicated concentrations. PO=paraffin oil. n=5. Baseline activity subtracted. Error bars indicate SEM.

[4] = test system: CO2 sensitive A neuron of peg sensillum; assay: as above; type: cell-based, Culex quinquefasciatus; conditions: indicated concentrations
Protocol: as §1, §2

Structure (SMILES) | inhibition of spontaneous activity of ab1C neurons [1] | avoidance behavior to CO2 (Preference Index) [2] | activation of CO2 sensitive neuron [3] | activation of CO2 sensitive neuron [4]
CCCCCCO [1-hexanol] | strongly inhibit | significantly reduced |  | 
CC(=O)C(C)=O [2,3-butanedione] | strongly inhibit | significantly reduced | activation | activation
